Legend:
db/db mutant mice = experiment: Oral administration in the early intervention treatment of type 2 diabetes in db/db mutant mice; format: in vivo; details: day 12
Procedure: Five week-old female db/db mutant mice (C57BL/KsJ-db +/+ m; Jackson Labs) were housed in a fixed 12-12-hr artificial light-dark cycle, and maintained on a standard high fat diet (containing at least 11% crude fat) provided ad libitum (Teklad S-2335). Animals were allowed two days to acclimate in this experimental environment prior to the initiation of the study.
Prior to initiation of treatment, the animals were bled from the tail vein (100–200 μL of whole blood) and serum levels of glucose and triglycerides were measured in duplicate (Trinder kits; Sigma, St. Louis, Mo.). Based on these initial measures, animals (not yet hyperglycemic) were sorted into groups with approximately the same average serum glucose levels. Once sorted, the animals were housed six per cage and provided high fat rodent diet ad libitum. • Experiment I: (Compound 1) • Treatment groups (n=6/group): • 1) db/db control (sesame oil) • 2) Compound 1 (0.3 mg/kg; twice daily) • 3) Compound 1 (1 mg/kg; twice daily) • Experiment II: (Compound 32) • Treatment groups (n=6/group): • 1) db/db control (sesame oil) • 2) Compound 32 (0.3 mg/kg; once daily) • 3) Compound 32 (1 mg/kg; once daily) • 4) Compound 32 (3 mg/kg; once daily) • 3) Rosiglitazone (1 mg/kg; only daily)
Drug is prepared by mixing Compound 1 or 32 in sesame oil, and administered to animals in a volume of 5 ml/kg/dose. Drug is administered by oral gavage daily at the beginning (Compound 1 and 32) and end of the artificial dark cycle (Compound 1; 12 hour interval).
(§1) To monitor the effect of Compound 1 or 32, animals were bled following a three-hour fast at the end of the dark cycle on days 12 of the treatment period. Fasting serum glucose and triglyceride levels were measured in duplicate. The blood is kept at room temperature to allow coagulation, after which the serum is separated and assayed for glucose and triglyceride levels.

ob/ob mutant mice = experiment: Oral administration in the late intervention treatment of type 2 diabetes in ob/ob mutant mice; format: in vivo; details: oral gavage 5 mg/kg twice daily, p<0.05 vs control; for fasting serum glucose levels: 1 and 2 weeks of treatment; for fasting serum triglyceride levels: two weeks of treatment
Procedure: Five week-old male ob/ob mutant mice (C57BL/6J-ob; Jackson Labs) were housed in a fixed 12-12-hr artificial light-dark cycle, and maintained on a standard diet provided ad libitum. Animals were allowed two days to acclimate in this experimental environment prior to the initiation of the study.
Prior to initiation of treatment, the animals were bled from the tail vein (100–200 μL of whole blood) and serum levels of glucose and triglycerides were measured in duplicate (Trinder kits; Sigma, St. Louis, Mo.). Based on these initial measures, hyperglycemic animals were sorted into groups with approximately the same average serum glucose levels. Once sorted, the animals were housed six per cage and provided standard rodent diet ad libitum. • Treatment groups (n=6/group): • 1) ob/ob control (sesame oil) • 2) Compound 1 (5mg/kg twice daily)
Drug is prepared by mixing Compound 1 in sesame oil, and administered to animals in a volume of 3 ml/kg/dose. Drug is administered by oral gavage twice daily at the beginning and end of the artificial dark cycle (12 hour interval).
as §1, with “1,” for “1 or 32,”, “7 and 14” for “12”

[1] = db/db mice, oral gavage, 0.3, 1 or 3 mg/kg once daily, rosiglitazone 1 mg/kg as comparator
[2] = db/db mice, oral gavage, 0.3, 1 or 3 mg/kg once daily, rosiglitazone 1 mg/kg as comparator, listed as compound 32
[3] = young db/db mice, oral gavage, 0.3 or 1 mg/kg twice daily
[4] = young db/db mice, oral gavage, 0.3 or 1 mg/kg twice daily, listed as compound 1

Cc1cc2c(cc1-c1cc(/C=C3\SC(=O)NC3=O)ccc1OC(F)(F)F)C(C)(C)CCC2(C)C [Compound 32, 3-(3,5,5,8,8-Pentamethyl-5,6,7,8-tetrahydro-2-naphthyl)-4-trifluoromethoxybenzylidene-2,4-thiazolidinedione]
fasting serum glucose levels (db/db mutant mice; [1]): remained well within the normal range | fasting serum triglyceride levels (db/db mutant mice; [1]): remained well within the normal range | fasting serum glucose levels (db/db mutant mice; [2]): equally or more potent than rosiglitazone | fasting serum triglyceride levels (db/db mutant mice; [2]): equally or more potent than rosiglitazone

COc1ccc(/C=C2\SC(=O)NC2=O)cc1-c1cc2c(cc1C)C(C)(C)CCC2(C)C [Compound 1, 3-(3,5,5,8,8-Pentamethyl-5,6,7,8-tetrahydro-2-naphthyl)-4-methoxybenzylidene-2,4-thiazolidinedione]
fasting serum glucose levels (db/db mutant mice; [3]): remained well within the normal range | fasting serum triglyceride levels (db/db mutant mice; [3]): remained well within the normal range | fasting serum glucose levels (db/db mutant mice; [4]): prevent increases | fasting serum triglyceride levels (db/db mutant mice; [4]): prevent increases | fasting serum glucose levels (ob/ob mutant mice; 5 mg/kg): significant decrease | fasting serum glucose levels (ob/ob mutant mice; listed as compound 1, 5 mg/kg): reduce | fasting serum triglyceride levels (ob/ob mutant mice; 5 mg/kg): significantly reduced | fasting serum triglyceride levels (ob/ob mutant mice; listed as compound 1, 5 mg/kg): reduce

Reference: patent US7226940B2, “Substituted heterocycles for the treatment of diabetes and other diseases” (Incyte San Diego, Inc., priority 2004, dated 2007)
